# In US10472356B2, “Bicyclic ketone sulfonamide compounds” (AMGEN INC., priority 2015, dated 2019):
# Assays:
# human Nav1.7 [1] = molecular target: T1, human Nav1.7 (Homo sapiens, UniProt Q15858); experiment: Nav 1.7 In Vitro PatchXpress (PX) Assay; format: cell-based; details: HEK 293 cells stably transfected with human Nav1.7; PatchXpress whole cell voltage clamp; partially inactivated state (holding potential yielding 20 to 50% inactivation); read-out: hNav1.7 PX IC50
# T1 construct: expressed in transfected cells; host or cells: HEK293
# Protocol: Nav 1.7 In Vitro PatchXpress (PX) Assay
# HEK 293 cells stably transfected with human Nav1.7 were recorded in whole cell voltage clamp mode with the PatchXpress automated electrophysiology system (Molecular Devices, LLC, Sunnyvale, Calif.). Compound effects were measured on a partially inactivated state of the sodium channel. Cells were clamped to a holding potential yielding 20 to 50% inactivation. To elicit sodium current, channels were activated by pulsing to −10 mV for 20 msec. This voltage protocol was repeated at a rate of 0.1 Hz throughout the experiment. A single concentration of test compound was applied to cells for a duration of 3 minutes. Peak sodium current was measured at the end of the compound addition period to determine percent inhibition. Three to five cells were tested per concentration, and IC50 curves were fitted to percent inhibition as a function of concentration.
# human Nav1.7 [2] = molecular target: T1, human Nav1.7; experiment: Nav 1.7 IWB In Vitro Assay (IonWorks Barracuda); format: cell-based; details: HEK293 cells stably transfected with human Nav 1.7; IonWorks Barracuda population patch-clamp; cells clamped to −20 mV for 4 minutes with compound; 26th pulse; read-out: hNav1.7 IWB IC50
# Protocol: Nav 1.7 IWB In Vitro Assay
# HEK293 cells stably transfected with human Nav 1.7 were recorded in population patch-clamp mode with the IonWorks© Barracuda (IWB) automated electrophysiology system (Molecular Devices, LLC, Sunnyvale, Calif.). From a holding potential of −110 mV, sodium currents were elicited by a train of 26 depolarizations of 150 ms duration to −20 mV at a frequency of 5 Hz. Cells were then clamped to −20 mV for a period of 4 minutes in the presence of a single concentration of test compound. Following this compound incubation period, cells were clamped to −110 mV for three seconds to recover unbound channels and put through the same 26 pulse voltage protocol as above. Peak inward current during the 26th pulse to −20 mV in the presence of compound was divided by the peak inward current evoked by the 26th pulse to −20 mV in the absence of compound to determine percent inhibition. Concentration-response curves of percent inhibition as a function of concentration were generated to calculate IC50 values.
# T1 sequence (Q15858 whole entry): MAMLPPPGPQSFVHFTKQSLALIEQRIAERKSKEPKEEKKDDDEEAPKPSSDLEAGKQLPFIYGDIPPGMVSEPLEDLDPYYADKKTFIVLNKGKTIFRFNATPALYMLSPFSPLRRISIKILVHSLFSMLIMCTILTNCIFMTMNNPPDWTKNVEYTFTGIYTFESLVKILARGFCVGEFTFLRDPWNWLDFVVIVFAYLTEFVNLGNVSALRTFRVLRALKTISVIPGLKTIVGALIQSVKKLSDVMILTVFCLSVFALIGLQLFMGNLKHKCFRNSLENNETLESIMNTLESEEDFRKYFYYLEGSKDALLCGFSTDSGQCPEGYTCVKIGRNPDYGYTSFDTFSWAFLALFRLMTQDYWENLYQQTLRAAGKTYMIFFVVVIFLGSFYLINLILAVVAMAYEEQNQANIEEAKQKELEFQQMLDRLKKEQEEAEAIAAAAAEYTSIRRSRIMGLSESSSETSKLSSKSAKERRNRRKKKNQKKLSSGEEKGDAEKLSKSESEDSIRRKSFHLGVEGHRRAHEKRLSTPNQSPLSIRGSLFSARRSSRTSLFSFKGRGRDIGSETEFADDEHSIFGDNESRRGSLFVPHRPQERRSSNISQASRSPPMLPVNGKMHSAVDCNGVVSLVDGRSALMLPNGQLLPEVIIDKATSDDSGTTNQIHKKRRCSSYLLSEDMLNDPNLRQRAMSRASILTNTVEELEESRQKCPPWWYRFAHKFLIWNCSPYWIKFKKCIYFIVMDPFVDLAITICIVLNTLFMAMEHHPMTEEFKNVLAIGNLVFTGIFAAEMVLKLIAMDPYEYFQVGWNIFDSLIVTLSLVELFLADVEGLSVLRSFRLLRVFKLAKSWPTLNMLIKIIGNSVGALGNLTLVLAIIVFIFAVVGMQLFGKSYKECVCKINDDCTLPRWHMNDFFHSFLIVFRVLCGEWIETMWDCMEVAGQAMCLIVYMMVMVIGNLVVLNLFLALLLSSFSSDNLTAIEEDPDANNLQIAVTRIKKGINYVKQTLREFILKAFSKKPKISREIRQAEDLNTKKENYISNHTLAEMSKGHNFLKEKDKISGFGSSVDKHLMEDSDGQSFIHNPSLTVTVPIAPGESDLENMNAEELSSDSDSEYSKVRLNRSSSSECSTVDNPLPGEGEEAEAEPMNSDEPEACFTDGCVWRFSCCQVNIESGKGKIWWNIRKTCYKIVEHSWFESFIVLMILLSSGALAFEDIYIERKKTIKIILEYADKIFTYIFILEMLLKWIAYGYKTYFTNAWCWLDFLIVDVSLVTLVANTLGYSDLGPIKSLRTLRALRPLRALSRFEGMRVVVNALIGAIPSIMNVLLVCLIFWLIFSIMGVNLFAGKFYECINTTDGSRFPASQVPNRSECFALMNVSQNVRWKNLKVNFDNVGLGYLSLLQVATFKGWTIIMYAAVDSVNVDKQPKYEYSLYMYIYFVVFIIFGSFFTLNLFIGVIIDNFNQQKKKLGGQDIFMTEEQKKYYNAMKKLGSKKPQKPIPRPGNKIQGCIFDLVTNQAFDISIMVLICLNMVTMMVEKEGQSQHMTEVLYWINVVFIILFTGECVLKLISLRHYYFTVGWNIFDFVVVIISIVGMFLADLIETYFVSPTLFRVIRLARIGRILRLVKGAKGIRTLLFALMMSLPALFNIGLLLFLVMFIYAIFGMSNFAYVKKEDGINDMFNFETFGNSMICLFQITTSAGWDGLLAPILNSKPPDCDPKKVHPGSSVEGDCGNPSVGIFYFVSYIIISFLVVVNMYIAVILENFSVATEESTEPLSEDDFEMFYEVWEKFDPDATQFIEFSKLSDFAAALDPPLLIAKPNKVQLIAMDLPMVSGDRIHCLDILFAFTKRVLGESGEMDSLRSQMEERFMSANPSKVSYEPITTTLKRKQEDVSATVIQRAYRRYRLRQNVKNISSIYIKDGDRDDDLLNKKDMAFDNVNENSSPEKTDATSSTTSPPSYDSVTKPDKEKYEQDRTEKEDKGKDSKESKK
SMILES,IC50 (human Nav1.7 [1]) [nM],IC50 (human Nav1.7 [2]) [nM]
"COc1cc(-c2cc(F)cc(Cl)c2)c(F)cc1-n1c2c(ccc1=O)CN(S(=O)(=O)Nc1cc(C)ncn1)CC2 (racemic) [4-(Rac), (Rac)-1-(3′-chloro-2,5′-difluoro-5-methoxy-4-biphenylyl)-N-(6-methyl-4-pyrimidinyl)-2-oxo-1,5,7,8-tetrahydro-1,6-naphthyridine-6(2H)-sulfonamide]",386,45.9
"COc1cc(-c2cc(F)cc(Cl)c2)c(F)cc1-n1c2c(ccc1=O)CN(S(=O)(=O)Nc1ccnc(C)n1)CC2 (racemic) [6-(Rac), (Rac)-1-(3′-chloro-2,5′-difluoro-5-methoxy-4-biphenylyl)-N-(2-methyl-4-pyrimidinyl)-2-oxo-1,5,7,8-tetrahydro-1,6-naphthyridine-6(2H)-sulfonamide]",666,101
"COc1cc(-c2cc(F)cc(Cl)c2)ccc1-n1c2c(ccc1=O)CN(S(=O)(=O)Nc1ccon1)CC2 (racemic) [7-(Rac), (Rac)-1-(3′-chloro-5′-fluoro-3-methoxy-4-biphenylyl)-N-3-isoxazolyl-2-oxo-1,5,7,8-tetrahydro-1,6-naphthyridine-6(2H)-sulfonamide]",254,16.7
"COc1cc(-c2cc(F)cc(Cl)c2)ccc1-n1c2c(ccc1=O)CN(S(=O)(=O)Nc1cccnn1)CC2 (racemic) [8-(Rac), (Rac)-1-(3′-chloro-5′-fluoro-3-methoxy-4-biphenylyl)-2-oxo-N-3-pyridazinyl-1,5,7,8-tetrahydro-1,6-naphthyridine-6(2H)-sulfonamide]",350,31.7
"COc1cc(-c2cc(F)cc(F)c2)c(F)cc1-n1c2c(ccc1=O)CN(S(=O)(=O)Nc1ncc(F)cn1)CC2 (racemic) [Example 10-(Rac), (Rac)-N-(5-fluoro-2-pyrimidinyl)-2-oxo-1-(2,3′,5′-trifluoro-5-methoxy-4-biphenylyl)-1,5,7,8-tetrahydro-1,6-naphthyridine-6(2H)-sulfonamide]",2280,163
"COc1cc(-c2cc(F)cc(Cl)c2)c(F)cc1-n1c2c(ccc1=O)CN(S(=O)(=O)Nc1ccccn1)CC2 (racemic) [Example 11-(Rac), (Rac)-1-(3′-chloro-2,5′-difluoro-5-methoxy-4-biphenylyl)-2-oxo-N-2-pyridinyl-1,5,7,8-tetrahydro-1,6-naphthyridine-6(2H)-sulfonamide]",371,60.9
"COc1cc(-c2cc(F)cc(Cl)c2)c(F)cc1-n1c2c(ccc1=O)CN(S(=O)(=O)Nc1ccc(F)cn1)CC2 (single isomer, unassigned) [Example 12-M, M-1-(3′-chloro-2,5′-difluoro-5-methoxy-4-biphenylyl)-N-(5-fluoro-2-pyridinyl)-2-oxo-1,5,7,8-tetrahydro-1,6-naphthyridine-6(2H)-sulfonamide]",9340,–
"COc1cc(-c2cc(F)cc(F)c2)c(F)cc1-n1c2c(ccc1=O)CN(S(=O)(=O)Nc1ncon1)CC2 (single isomer, unassigned) [Example 17-P, P-N-1,2,4-oxadiazol-3-yl-2-oxo-1-(2,3′,5′-trifluoro-5-methoxy-4-biphenylyl)-1,5,7,8-tetrahydro-1,6-naphthyridine-6(2H)-sulfonamide]",> 1000,–
"COc1cc(-c2cc(F)cc(F)c2)c(F)cc1-n1c2c(ccc1=O)CN(S(=O)(=O)Nc1ccon1)CC2 (single isomer, unassigned) [Example 25-M, M-N-3-isoxazolyl-2-oxo-1-(2,3′,5′-trifluoro-5-methoxy-4-biphenylyl)-1,5,7,8-tetrahydro-1,6-naphthyridine-6(2H)-sulfonamide]",> 1000,–
"COc1cc(C(F)(F)F)ccc1-n1c2c(ccc1=O)CN(S(=O)(=O)Nc1ccon1)CC2 (single isomer, unassigned) [Example 26-M, M-N-3-isoxazolyl-1-(2-methoxy-4-(trifluoromethyl)phenyl)-2-oxo-1,5,7,8-tetrahydro-1,6-naphthyridine-6(2H)-sulfonamide]",> 1000,–
"COc1cc(C(F)(F)F)ccc1-n1c2c(ccc1=O)CN(S(=O)(=O)Nc1ccon1)CC2 (single isomer, unassigned) [Example 26-P, P-N-3-isoxazolyl-1-(2-methoxy-4-(trifluoromethyl)phenyl)-2-oxo-1,5,7,8-tetrahydro-1,6-naphthyridine-6(2H)-sulfonamide]",> 1000,–
"COc1cc(-c2ccc(Cl)c(C)c2)c(F)cc1-n1c2c(ccc1=O)CN(S(=O)(=O)Nc1ccncn1)CC2 [Example 1-P, P-1-(4′-chloro-2-fluoro-5-methoxy-3′-methyl-4-biphenylyl)-2-oxo-N-4-pyrimidinyl-1,5,7,8-tetrahydro-1,6-naphthyridine-6(2H)-sulfonamide]",29.6,–

# Continued, values first:
IC50 (human Nav1.7 [1]) [nM],IC50 (human Nav1.7 [2]) [nM],SMILES
> 1000,–,"COc1ccc(-c2ccc(C)c(Cl)c2)cc1-n1c2c(ccc1=O)CN(S(=O)(=O)Nc1cccnn1)CC2 (single isomer, unassigned) [Example 55-M, M-1-(3′-chloro-4-methoxy-4′-methyl-3-biphenylyl)-2-oxo-N-3-pyridazinyl-1,5,7,8-tetrahydro-1,6-naphthyridine-6(2H)-sulfonamide]"
710,–,"COc1ccc(-c2ccc(C)c(Cl)c2)cc1-n1c2c(ccc1=O)CN(S(=O)(=O)Nc1cccnn1)CC2 (single isomer, unassigned) [Example 55-P, P-1-(3′-chloro-4-methoxy-4′-methyl-3-biphenylyl)-2-oxo-N-3-pyridazinyl-1,5,7,8-tetrahydro-1,6-naphthyridine-6(2H)-sulfonamide]"
73.2,–,"COc1cc(-c2ccc(C)c(Cl)c2)c(F)cc1-n1c2c(ccc1=O)CN(S(=O)(=O)Nc1cccnn1)CC2 [Example 44, P-1-(3′-chloro-2-fluoro-5-methoxy-4′-methyl-4-biphenylyl)-2-oxo-N-3-pyridazinyl-1,5,7,8-tetrahydro-1,6-naphthyridine-6(2H)-sulfonamide]"
29.8,–,"COc1cc(-c2cccc(C(F)(F)F)c2)c(F)cc1-n1c2c(ccc1=O)CN(S(=O)(=O)Nc1cccnn1)CC2 [Example 45, P-1-(2-fluoro-5-methoxy-3′-(trifluoromethyl)-4-biphenylyl)-2-oxo-N-3-pyridazinyl-1,5,7,8-tetrahydro-1,6-naphthyridine-6(2H)-sulfonamide]"
102,–,"COc1cc(-c2cc(F)c(F)c(F)c2)c(F)cc1-n1c2c(ccc1=O)CN(S(=O)(=O)Nc1cccnn1)CC2 [Example 46, P-2-oxo-N-3-pyridazinyl-1-(2,3′,4′,5′-tetrafluoro-5-methoxy-4-biphenylyl)-1,5,7,8-tetrahydro-1,6-naphthyridine-6(2H)-sulfonamide]"
95.1,–,"COc1cc(-c2ccc(Cl)c(F)c2)c(F)cc1-n1c2c(ccc1=O)CN(S(=O)(=O)Nc1cccnn1)CC2 [Example 47, P-1-(4′-chloro-2,3′-difluoro-5-methoxy-4-biphenylyl)-2-oxo-N-3-pyridazinyl-1,5,7,8-tetrahydro-1,6-naphthyridine-6(2H)-sulfonamide]"
80.3,–,"COc1cc(-c2ccc(F)c(Cl)c2)c(F)cc1-n1c2c(ccc1=O)CN(S(=O)(=O)Nc1cccnn1)CC2 [Example 48, P-1-(3′-chloro-2,4′-difluoro-5-methoxy-4-biphenylyl)-2-oxo-N-3-pyridazinyl-1,5,7,8-tetrahydro-1,6-naphthyridine-6(2H)-sulfonamide]"
168,–,"COc1cc(-c2cccc(Cl)c2F)c(F)cc1-n1c2c(ccc1=O)CN(S(=O)(=O)Nc1cccnn1)CC2 [Example 49, P-1-(3′-chloro-2,2′-difluoro-5-methoxy-4-biphenylyl)-2-oxo-N-3-pyridazinyl-1,5,7,8-tetrahydro-1,6-naphthyridine-6(2H)-sulfonamide]"
172,–,"COc1cc(-c2cnc(OC)c(Cl)c2)c(F)cc1-n1c2c(ccc1=O)CN(S(=O)(=O)Nc1cccnn1)CC2 [Example 50, P-1-(4-(5-chloro-6-methoxy-3-pyridinyl)-5-fluoro-2-methoxyphenyl)-2-oxo-N-3-pyridazinyl-1,5,7,8-tetrahydro-1,6-naphthyridine-6(2H)-sulfonamide]"
493,–,"COc1ccc(-c2ccc(Cl)c(C)c2)cc1-n1c2c(ccc1=O)CN(S(=O)(=O)Nc1cccnn1)CC2 [Example 56-P, P-1-(4′-chloro-4-methoxy-3′-methyl-3-biphenylyl)-2-oxo-N-3-pyridazinyl-1,5,7,8-tetrahydro-1,6-naphthyridine-6(2H)-sulfonamide]"
232,–,"COc1ccc(-c2cccc(Cl)c2C)cc1-n1c2c(ccc1=O)CN(S(=O)(=O)Nc1cccnn1)CC2 [Example 57-P, P-1-(3′-chloro-4-methoxy-2′-methyl-3-biphenylyl)-2-oxo-N-3-pyridazinyl-1,5,7,8-tetrahydro-1,6-naphthyridine-6(2H)-sulfonamide]"
